{
  "source": "patent US20260097106A1",
  "about": "“AVIRULENT LIVE BACTERIAL VACCINES CURED OF PLASMIDS CONTAINING ANTIMICROBIAL RESISTANCE GENES” (Drs. Koehnk & Feldman, LLP, priority 2022, published 2026)",
  "format_in_all_cases": "cell-based, E. coli",
  "key": {"MS060520HM-PCISRAF18": {"tested_on": "MS060520HM-PCISRAF18", "assay": "Growth on blood agar containing 16 μg/ml tetracycline HCl", "conditions": "18 hours at 37° C.", "protocol": "(§1) Comparison of tetracycline resistance between Edema Vac F18 cells cured of plasmids that contain AMR genes (MS060520HM-PCISRAF18) and Entero Vac K88 cells cured of plasmids that contain AMR genes (MS-K88-030321HM-PC2BSRAK88) was performed as follows: preparing subcultures of MS060520HM-PCISRAF18 and MS-K88-030321HM-PC2BSRAK88 on blood agar containing 16 μg/ml tetracycline HCl, incubating for 18 hours at 37° C., and observing haemolytic growth."}, "[1]": {"tested_on": "MS-K88-030321HM-PC2BSRAK88", "assay": "Growth on blood agar containing 16 μg/ml tetracycline HCl", "conditions": "18 hours at 37° C.", "protocol": "as §1"}, "[2]": {"tested_on": "MS060520HM-PCISRAF18 cells", "assay": "Tetracycline HCl serial dilution in TSB media, turbidity", "protocol": "Further evaluation of tetracycline sensitivity of cured MS060520HM-PCISRAF 18 cells was performed as follows: inoculating 10 ml of TSB media with MS060520HM-PCISRAF18 cells, incubating at 37° C. for 22 hours on orbital shaker at 150 rpm, preparing 1:1 serial dilutions of 5 ml tetracycline HCL in TSB media (from stock of 640 mg tetracycline HCl in 5 ml ultrapure water), inoculating the serial dilutions with 10 ul of the fermentate."}, "[3]": {"tested_on": "ECMS091703HM-competent (competent Entero Vac K88 cells)", "assay": "AMR disc testing on Mueller Hinton agar plates", "conditions": "antibiotic disc", "protocol": "(§2) AMR testing was performed comparing ECMS091703HM-SR and ECMS091703HM-competent cells cultured on Mueller Hinton agar plates using Neomycin (NE 30) and Sulfathiazine (ST 0.25) discs. A master plate of ECMS091703HM-SR was produced as follows: subculturing a colony of ECMS091703HM-SR from LB agar containing 5% sucrose on new LB agar containing 5% sucrose, incubating overnight at 37° C., and storing sealed at 2-8° C."}, "[4]": {"tested_on": "ECMS091703HM-SR (Entero Vac K88 cells cured of plasmids that contain AMR genes)", "assay": "AMR disc testing on Mueller Hinton agar plates", "protocol": "as §2"}, "[5]": {"tested_on": "MS112101HM-AMR5 (Edema Vac F18 transformed with AMR5 plasmid)", "assay": "AMR disc testing on Mueller Hinton agar plates", "conditions": "antibiotic disc, Mueller Hinton plates", "protocol": "(§3) AMR testing was performed comparing MS112101HM—SR, MS112101HM-AMR5, and MS112101HM-competent cells cultured on Mueller Hinton agar plates using Sulfatrim (SXT), Tetracycline (TE 30), Neomycin (NE 30), Sulfathiazine (ST 0.25), and Gentamicin (GM 10) discs."}, "[6]": {"tested_on": "MS112101HM-SR (Edema Vac F18 cells cured of plasmids that contain AMR genes)", "assay": "AMR disc testing on Mueller Hinton agar plates", "protocol": "as §3"}, "[7]": {"tested_on": "MS112101HM-competent (competent Edema Vac F18 cells)", "assay": "AMR disc testing on Mueller Hinton agar plates", "conditions": "antibiotic disc", "protocol": "as §3"}},
  "data": [
    {"molecule": "CN(C)[C@@H]1C(O)=C(C(N)=O)C(=O)[C@@]2(O)C(O)=C3C(=O)c4c(O)cccc4[C@@](C)(O)[C@H]3C[C@@H]12.Cl", "note": "[Tet HCl, Tetracycline HCL]", "values": [
      {"measurement": "Tetracycline resistance (haemolytic growth)", "setting": "MS060520HM-PCISRAF18", "result": "confirmed tetracycline resistance"},
      {"measurement": "Tetracycline resistance (haemolytic growth)", "setting": "[1]", "result": "did not display any tetracycline resistance"},
      {"measurement": "Turbidity 8 hours post inoculation", "setting": "[2]; Tet HCl 2 μg/ml in TSB media", "result": "Pos"},
      {"measurement": "Turbidity 24 hours post inoculation", "setting": "[2]; Tet HCl 2 μg/ml in TSB media", "result": "Pos"},
      {"measurement": "Turbidity 8 hours post inoculation", "setting": "[2]; Tet HCl 4 μg/ml in TSB media", "result": "Pos"},
      {"measurement": "Turbidity 24 hours post inoculation", "setting": "[2]; Tet HCl 4 μg/ml in TSB media", "result": "Pos"},
      {"measurement": "Turbidity 8 hours post inoculation", "setting": "[2]; Tet HCl 8 μg/ml in TSB media", "result": "Pos"},
      {"measurement": "Turbidity 24 hours post inoculation", "setting": "[2]; Tet HCl 8 μg/ml in TSB media", "result": "Pos"},
      {"measurement": "Turbidity 8 hours post inoculation", "setting": "[2]; Tet HCl 16 μg/ml in TSB media", "result": "Pos"},
      {"measurement": "Turbidity 24 hours post inoculation", "setting": "[2]; Tet HCl 16 μg/ml in TSB media", "result": "Pos"},
      {"measurement": "Turbidity 8 hours post inoculation", "setting": "[2]; Tet HCl 32 μg/ml in TSB media", "result": "Pos"},
      {"measurement": "Turbidity 24 hours post inoculation", "setting": "[2]; Tet HCl 32 μg/ml in TSB media", "result": "Pos"},
      {"measurement": "Turbidity 8 hours post inoculation", "setting": "[2]; Tet HCl 64 μg/ml in TSB media", "result": "Slight"},
      {"measurement": "Turbidity 24 hours post inoculation", "setting": "[2]; Tet HCl 64 μg/ml in TSB media", "result": "Pos"},
      {"measurement": "Turbidity 8 hours post inoculation", "setting": "[2]; Tet HCl 128 μg/ml in TSB media", "result": "Neg"},
      {"measurement": "Turbidity 24 hours post inoculation", "setting": "[2]; Tet HCl 128 μg/ml in TSB media", "result": "Pos"},
      {"measurement": "Concentration with inhibited growth", "setting": "[2]; tetracycline HCl in TSB media", "result": 128, "unit": "µg/mL"}
    ]},
    {"molecule": "Sulfathiazine [ST 0.25]", "values": [
      {"measurement": "Ring measurement (radius, mm)", "setting": "[3]", "result": 13, "unit": "mm"},
      {"measurement": "Ring measurement (radius, mm)", "setting": "[4]; antibiotic disc, Mueller Hinton plates, ECMS091703HM-SR", "result": 20, "unit": "mm"},
      {"measurement": "Resistance of the strain to the antibiotic (in words)", "setting": "[4]; disc test, ECMS091703HM-SR compared with ECMS091703HM-competent", "result": "less resistance"},
      {"measurement": "Ring measurement (radius, mm)", "setting": "[5]", "result": 18, "unit": "mm"},
      {"measurement": "Ring measurement (radius, mm)", "setting": "[6]; antibiotic disc, Mueller Hinton plates, MS112101HM-SR", "result": 15, "unit": "mm"},
      {"measurement": "Resistance of the strain to the antibiotic (in words)", "setting": "[6]; disc test, MS112101HM-SR compared with MS112101HM-competent", "result": "less resistance"},
      {"measurement": "Ring measurement (radius, mm)", "setting": "[7]", "result": 0, "unit": "mm"}
    ]}
  ]
}
